Source: paper PMC3986099, “Development of a Radioiodinated Triazolopyrimidine Probe for Nuclear Medical Imaging of Fatty Acid Binding Protein 4” (PLoS ONE, 2014)

What was measured:
his-tagged FABP4 [1] = biological target: T1, his-tagged FABP4 (Homo sapiens, UniProt P15090); assay: Competition binding assay with 1,8-ANS as tracer
T1 construct: purchased Cayman Chemical Company
Procedure: In accordance with previous reports, competition binding experiments were performed using 8-anilino-1-naphthalene sulfonic acid (1,8-ANS) as the tracer. Briefly, a mixture containing 0.12 ml phosphate buffer (50 mM, pH = 7.4), 0.03 ml TAP1 (2.6 mM–300 nM) in DMSO, 0.075 ml 1,8-ANS (24 nM) in phosphate buffer (0.2% ethanol, v/v) and 0.075 ml his-tagged FABP4 (1 µM) in phosphate buffer was incubated at room temperature for 5 min. […] The inhibition constants (K i) were calculated using the Cheng-Prusoff equation: K i = IC50/(1+[L]/K d), where [L] is the 1,8-ANS concentration and K d is the 1,8-ANS dissociation constant.

[2] = Parallel artificial membrane permeation assay (PAMPA); assay type: in vitro ADME; conditions: room temperature, read-out: permeability (PAMPA)
Procedure: The permeability of TAP1 was measured using a pre-coated PAMPA plate system (BD Biosciences) following the manufacturer's procedures. Briefly, TAP1 (100–200 µM, 0.2 ml) was added to donor plate and PBS (-) (0.2 ml) was added to the acceptor plate in the PAMPA plate assembly. After coupling both plates together and incubating at room temperature for 5 hr, 0.15 ml of the sample was obtained from each plate and 0.15 ml of the original compound solution was also obtained. Then, the absorbance of each sample was measured at 280 nm. The permeability was calculated as: Pe (cm/s) = (−ln[1−CA/Cequilibrium])/St (1/VD+1/VA) and Cequilibrium = [CDVD+CAVA]/(VD+VA). CD = C0 (AD−Abuffer)/(A0−Abuffer) and CA = C0 (AA−Abuffer)/(A0−Abuffer). C0 is the concentration of the start sample and A0, Abuffer, AD and AA are absorbances of the starting sample, buffer, donor and acceptor, respectively. VD and VA are the donor and acceptor volumes, respectively. S is the membrane area and t is the incubation time.

his-tagged FABP4 [3] = biological target: T1, his-tagged FABP4; assay: Selectivity binding assay with FABP immobilized on Ni-NTA magnetic agarose beads
Procedure: For the selectivity binding assay, his-tagged FABP3 (0.75 mg/ml), FABP4 (0.75 mg/ml) and FABP5 (0.70 mg/ml) in 50 mM phosphate buffer containing 100 mM NaCl (20% glycerol, v/v, pH = 7.2) were used. Immobilization was performed following the manufacturer's procedures. Each solution of his-tagged FABP3 ([…], 1.5 µg), FABP4 (0.002 ml, 1.5 µg) or FABP5 (0.002 ml, 1.4 µg) was incubated with 0.02 ml Ni-NTA Magnetic Agarose Beads (Qiagen) and 0.5 ml protein binding buffer (50 mM NaH2PO4, 300 mM NaCl, 10 mM imidazole, pH = 8.0) at room temperature for 1 hr. After supernatant removal, protein binding buffer with 1% BSA was added, and the mixture was incubated at room temperature for 30 min. After removal of the supernatant, 0.4 ml of interaction buffer (50 mM NaH2PO4, 300 mM NaCl, 10 mM imidazole, and 0.005% Tween, v/v, pH = 8.0) and 0.05 ml [^125I]TAP1 (0.01 MBq) in interaction buffer (5% ethanol, v/v) were added. For measurement of non-specific binding, 0.05 ml of nonradioactive TAP1 in interaction buffer (5% ethanol, v/v, 11.3 µM) was added with the [^125I]TAP1. After incubation at room temperature for 2 hr, the supernatants were removed, and the beads washed with interaction buffer (5% ethanol, v/v). The radioactivity of beads in the tubes was measured with a well-type γ-counter (1480 Wizard3, PerkinElmer Japan Co., Osaka, Japan). Binding ratios were calculated as (radioactivity of beads)/(total applied radioactivity)/(protein abundance on beads)×100 (%Dose/µg protein).

[4] = system: differentiated THP-1 cells; assay: Cell uptake study and inhibition assay; assay type: cell-based, Human; conditions: 4 °C, 3 hr
Procedure: Human monocytic leukemia THP-1 cells were obtained from ATCC and rat glioma C6 cells were from the Health Science Research Resources Bank. THP-1 cells were cultured in Gibco RPMI 1640 medium (Nissui Pharmaceutical Co., Ltd.) supplemented with 10% heat-inactivated fetal bovine serum (Nichirei Bioscience Inc.), 50 U/ml penicillin and 50 µg/ml streptomycin (Nacalai Tesque, Inc.) at 37 °C in 5% CO2. C6 cells were cultured in McCoy's 5A Modified Medium supplemented with 10% heat-inactivated fetal bovine serum, 50 U/ml penicillin and 50 µg/ml streptomycin at 37 °C in 5% CO2. For cell uptake assays, THP-1 monocytes were differentiated into macrophages by incubation with 100 nM phorbol 12-myristate 13-acetate for 24 hr.
For the cell uptake study, tubes were pre-incubated with 50 mg/ml skim milk in PBS (-) at 4 °C for 3 hr. Then, 0.4 ml of differentiated THP-1 cells (1.0×10^6 cells/tube) in PBS (-) and 0.05 ml [^125I]TAP1 in PBS (-) (0.008 MBq, 5% ethanol, v/v) were added to the tubes, and the cells were incubated at 4 °C for 3 hr. […] The radioactivity of the tubes was measured with a well-type γ-counter. […] Binding ratios were calculated as (radioactivity in tubes)/(total applied radioactivity)/(protein abundance) ×100 (%Dose/mg protein). […] After incubation at 4 °C for 3 hr, the radioactivity measurement and calculation of the binding ratio were performed as described above. […]

[5] = system: 3T3-L1 preadipocytes and differentiated adipocytes; assay: Cell uptake study in adipocytes and preadipocytes; assay type: cell-based, Murine; conditions: concentration-dependent, 0-100 μM
Procedure: Murine 3T3-L1 preadipocytes were obtained from ATCC and cultured in Dulbecco's Modified Eagle Medium (Nissui Pharmaceutical Co., Ltd.) supplemented with 10% heat-inactivated fetal bovine serum, 50 U/ml penicillin and 50 μg/ml streptomycin at 37 °C in 5% CO2. For cell uptake assay, differentiation of 3T3-L1 cells was performed as described previously. Briefly, two days after confluence, the medium was replaced with DMEM containing 10% FBS and inducers ([…], 10 μg/ml insulin, 0.5 mM 3-isobutyl-1-methylxanthine and 10 μM pioglitazone hydrochloride) for 2 days. The medium was then changed to DMEM supplemented with 10% FBS, 10 μg/ml insulin and 10 μM pioglitazone hydrochloride, and then incubated for 2 days. Then, the medium was changed to DMEM supplemented with 10% FBS and 10 μM pioglitazone hydrochloride every other day. After 8-10 days, the differentiated adipocytes were used for experiments.
For the cell uptake study using adipocytes, the medium of 24-well plate, in which the differentiated adipocytes or undifferentiated 3T3-L1 cells are cultured, was removed. […] Following the measurement of the radioactivity of collected cell lysate with a well-type γ-counter, protein determination was performed. […] Binding ratios were calculated as (radioactivity in collected cells)/(total applied radioactivity)/(protein abundance) x 100 (%Dose/mg protein).

T1 sequence (P15090 whole entry): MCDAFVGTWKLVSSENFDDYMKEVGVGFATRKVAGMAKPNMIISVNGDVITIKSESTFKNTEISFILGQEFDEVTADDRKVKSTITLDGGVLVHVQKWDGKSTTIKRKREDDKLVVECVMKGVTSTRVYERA

Kd (his-tagged FABP4 [1]) [nM] | Ki (his-tagged FABP4 [1]; competition with 1,8-ANS, FABP4) [nM] | Papp at 5 h [2] [×10⁻⁶ cm/s] | FABP4 binding relative to FABP3 (his-tagged FABP4 [3]; FABP4 over FABP3) | FABP4 binding relative to FABP5 (his-tagged FABP4 [3]; FABP4 over FABP5) | Compound | inhibition of [^125I]TAP1 uptake into differentiated THP-1 cells [4] | inhibition of [^125I]TAP1 uptake into adipocytes [5]
1200 |  |  |  |  | O=S(=O)(O)c1cccc2cccc(Nc3ccccc3)c12 [1,8-ANS, 8-anilino-1-naphthalene sulfonic acid, reference compound] |  | 
 | 44.5 ± 9.8 | 12.6 ± 2.9 | more than 10 fold | more than 10 fold | O=c1cc(COc2cccc(I)c2)[nH]c2nc(-c3ccccc3)nn12 [TAP1, 5-{(3-Iodophenoxy)methyl}-2-phenyl-[1], [2], [4]triazolo[1,5-a]pyrimidin-7(4H)-one] | significantly inhibited | 
 |  |  |  |  | CCc1c(-c2ccccc2)c(-c2ccccc2)nn1-c1ccccc1-c1cccc(OCC(=O)O)c1 [BMS309403, reference compound] | significantly inhibited | significantly inhibited
